One compound from PMC8467576, “Novel Ubiquitin Specific Protease-13 Inhibitors Alleviate Neurodegenerative Pathology” (Metabolites, 2021) can be followed below.

In experiment [1] the test system is ptau396. Briefly: p-Tau ser396 ELISA in TgA53T mice. The experiment is classed as in vivo, mouse. As to conditions: 10 mg/Kg or 40 mg/Kg I.P. daily for 7 days. The method, then:
Therefore, we also measured tau levels. There was no effect on murine tau levels (Figure 4D).
BK50118-C is one of novel small molecule inhibitors of USP13 synthesized in our laboratory. For BK50118-C treatment, approximately 15 months old (±1 month) male and female TgA53T mice were treated with intraperitoneal injection of vehicle (DMSO) or BK50118-C at the daily dosage of 10 mg/Kg or 40 mg/Kg for 7 days. Animals were age and sex-matched in their respective treatment cohorts. All animals were sacrificed after treatment. All experiments were conducted in full compliance with the recommendations of Georgetown University Animal Care and Use Committee. These experiments were conducted under animal protocol No. 2016-1194 titled, Misfolded Protein Clearance in Neurodegeneration, which was approved by the Georgetown University IACUC. Protocol Information: IACUC Protocol Number: 2016-1194. Protocol Approval Date: 14 September 2020 Expiration Date: 14 September 2023.
The ELISA for USP13 (MyBioSource, Cat # MBS9335287, San Diego, CA, USA), Human alpha-synuclein (Biolegend, Cat # 844101, San Diego, CA, USA) and specific p-Tau ser396 (Invitrogen, KHB7031, Waltham, MA, USA) were performed on cell or brain tissue extracts as described above according to manufacturers’ protocol.
On the technique in general: ELISA stands for enzyme-linked immunosorbent assay.

For experiment [2], the system named is alpha-synuclein ubiquitination. Nature of the experiment: Alpha-synuclein ubiquitination in TgA53T mice (IP/WB, co-localization immunostaining). The experiment is classed as in vivo, mouse. The method, then:
Male and female TgA53T mice (15 months old) were treated daily with intraperitoneal injection of DMSO versus 10 mg/kg or 40 mg/kg BK50118-C for 7 days. […] ELISA measurement of alpha-synuclein in the same extracts (Figure 4C) confirmed that human alpha-synuclein was reduced by about 30% (10 mg/kg) and 56% (40 mg/kg), respectively (Figure 4C).
To ascertain the mechanistic effects of BK50118-C on alpha-synuclein clearance, we performed immunostaining in striatum of TgA53T mice. […] We also performed the staining of tyrosine hydroxylase (TH) in the striatum of TgA53T mice. TH is the enzyme responsible for catalyzing the rate limiting step in synthesis of L-3,4-dihydroxyphenylalanine(L-DOPA) which is a precursor for dopamine (DA). Staining of TH will help to evaluate the status of DA producing neurons in the SN and their terminals in the striatum.
BK50118-C is one of novel small molecule inhibitors of USP13 synthesized in our laboratory. For BK50118-C treatment, approximately 15 months old (±1 month) male and female TgA53T mice were treated with intraperitoneal injection of vehicle (DMSO) or BK50118-C at the daily dosage of 10 mg/Kg or 40 mg/Kg for 7 days. […]
Mouse brain tissues were homogenized in 1x STEN buffer, and the soluble fraction was isolated as indicated above. […] The supernatant was recovered and quantified by protein assay, and a total of 300 µg protein was incubated overnight at 4 °C with primary anti-alpha-synuclein (1:200, Thermofisher, AHB0261) mouse antibodies or anti-ubiquitin (1:100) (Thermo Fisher, PA3–16717, Rockford, IL, USA) antibodies in the presence of sepharose G and an IgG control with primary antibodies. […]
Immunohistochemistry was performed on the 20 µm thick brain sections for evaluation of ubiquitination of alpha-synuclein. […] The optic densitometry of co-localization of ubiquitin with alpha-synuclein was measured using Image J. Tyrosine hydroxylase (TH) is the limiting enzyme in DA synthesis, so probing for TH+ neurons will help to evaluate the status of DA producing neurons in the SN and their terminals in the striatum. […]

The mark [3] stands for this setting: midbrain extracts, 40 mg/kg vs DMSO and 10 mg/kg, 7 days.

As to `Fc1ccc2nccc(OCc3ccccc3)c2c1` [BK50118-C, 4-benzyloxy-6-fluoroquinoline], the “effect on murine tau levels (ptau396 ELISA)” value in experiment [1] is recorded as “no effect”. In experiment [2] (setting [3]), the “ubiquitination after immunoprecipitation of alpha-synuclein followed by ubiquitin WB” value is “increased ubiquitination” and the “ubiquitination of alpha-synuclein after immunoprecipitation of ubiquitin followed by alpha-synuclein WB” value is given as “increased ubiquitination of alpha-synuclein”. The “increase in alpha-synuclein-ubiquitin co-localization (optic density)” value in experiment [2] (striatum, 40 mg/Kg I.P. daily for 7 days, vs DMSO) is recorded as 130%.
